Laboratory results reported in patent US20240025862A1, “SUBSTITUTED N-PHENYLURACILS AND SALTS THEREOF, AND USE THEREOF AS HERBICIDAL ACTIVE SUBSTANCES” (Bayer Aktiengesellschaft, priority 2020, published 2024).
One block for each compound: values may come before it.

What was measured:
Format in all cases: in vivo
Oryza sativa (ORYSA) = assay: Post-emergence crop plant compatibility, greenhouse pot test (also comparative test C); conditions: for Post-emergence action against ORYSA (crop plant compatibility): vs untreated controls
In short: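 Rice and other crops sprayed post-emergence at one-leaf stage (2–3 weeks after sowing) with WP or EC formulations plus 0.5% additive at 600 l/ha water. Visual rating about 3 weeks later versus untreated controls (100% = dead, 0% = like control); suffixes a–c denote different doses.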

[1] = tested on: Triticum aestivum (TRZAS); assay: Post-emergence crop plant compatibility, greenhouse pot test; conditions: vs untreated controls
In short: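 Crop plants grown in sandy loam in the greenhouse were sprayed post-emergence at the one-leaf stage, 2–3 weeks after sowing, with WP or EC formulations as aqueous suspension/emulsion plus 0.5% additive at 600 l/ha. Damage was rated visually about 3 weeks later versus untreated controls (0% = like control, 100% = plants dead).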

Veronica persica (VERPE) = assay: Post-emergence herbicidal action, greenhouse pot test
In short: (§1)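 Greenhouse-grown weeds in sandy loam were sprayed post-emergence at the one-leaf stage, 2–3 weeks after sowing. Compounds were formulated as WP or EC in water with 0.5% additive at 600 l/ha, at rates of 20 g/ha or less. Visual rating after about 3 weeks used a scale from 0% (like untreated control) to 100% (plants dead).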

Viola tricolor (VIOTR) = assay: as above
In short: as §1

[2] = tested on: Pharbitis purpurea (PHBPU); assay: as above
In short: as §1

[3] = tested on: Polygonum convolvulus (POLCO); assay: as above
In short: as §1

Avena fatua (AVEFA) = assay: as above; conditions: 20 g/ha, rated visually after about 3 weeks vs untreated controls, 100% = plants have died
In short: as §1

[4] = tested on: Abutilon theophrasti (ABUTH); assay: as above; conditions: rated visually after about 3 weeks vs untreated controls, 100% = plants have died
In short: as §1

[5] = tested on: Amaranthus retroflexus (AMARE); assay: as above; conditions: rated visually after about 3 weeks vs untreated controls, 100% = plants have died
In short: as §1

[6] = tested on: Alopecurus myosuroides (ALOMY); assay: Post-emergence herbicidal action, greenhouse pot test (also comparative test C); conditions: rated visually after about 3 weeks vs untreated controls, 100% = plants have died
In short: (§2)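 Green parts of one-leaf-stage plants are sprayed at 600 l/ha with formulated compound plus 0.5% additive, then kept under optimum greenhouse conditions for about 3 weeks. Damage is scored visually, where 100% means dead plants and 0% means no difference from controls.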

Setaria viridis (SETVI) = assay: as above
In short: as §2

[7] = tested on: Echinochloa crus-galli (ECHCG); assay: as above
In short: as §2

[8] = tested on: Matricaria inodora (MATIN); assay: as above
In short: as §2

Post-emergence action against ORYSA (crop plant compatibility) (Oryza sativa (ORYSA); 1.25 g/ha): 0%
Post-emergence action against ORYSA (crop plant compatibility) (Oryza sativa (ORYSA); 5 g/ha): 20%
Post-emergence action against TRZAS (crop plant compatibility) ([1]; 1.25 g/ha): 0%
Post-emergence action against TRZAS (crop plant compatibility) ([1]; 5 g/ha): 20%
Compound: Cn1c(C(F)(F)F)cc(=O)n(-c2cc(Oc3ccccc3OCC(=O)OCC#N)c(Br)cc2F)c1=O [I.8-176, Cyanomethyl (2-{2-bromo-4-fluoro-5-[3-methyl-2,6-dioxo-4-(trifluoromethyl)-3,6-dihydropyrimidin-1(2H)-yl]phenoxy}phenoxy)acetate]
pest or weed control at 1.25 g/ha (Veronica persica (VERPE); Veronica persica, 504 h, 1.25 g/ha, read-out: Post-emergence action against VERPE): 100%
pest or weed control at 5 g/ha (Veronica persica (VERPE); Veronica persica, 504 h, 5 g/ha, read-out: Post-emergence action against VERPE): 100%
pest or weed control at 20 g/ha (Veronica persica (VERPE); Veronica persica, 504 h, 20 g/ha, read-out: Post-emergence action against VERPE): 100%
pest or weed control at 1.25 g/ha (Viola tricolor (VIOTR); Viola tricolor, 504 h, 1.25 g/ha, read-out: Post-emergence action against VIOTR): 90%
pest or weed control at 5 g/ha (Viola tricolor (VIOTR); Viola tricolor, 504 h, 5 g/ha, read-out: Post-emergence action against VIOTR): 100%
pest or weed control at 20 g/ha (Viola tricolor (VIOTR); Viola tricolor, 504 h, 20 g/ha, read-out: Post-emergence action against VIOTR): 100%
pest or weed control at 1.25 g/ha ([2]; Ipomoea purpurea, 504 h, dosage 1.25 g/ha, read-out: Post-emergence action against PHBPU in %): 80%
pest or weed control at 5 g/ha ([2]; Ipomoea purpurea, 504 h, dosage 5 g/ha, read-out: Post-emergence action against PHBPU in %): 80%
pest or weed control at 20 g/ha ([2]; Ipomoea purpurea, 504 h, dosage 20 g/ha, read-out: Post-emergence action against PHBPU in %): 100%
pest or weed control at 5 g/ha ([3]; Fallopia convolvulus, 504 h, dosage 5 g/ha, read-out: Post-emergence action against POLCO in %): 80%
pest or weed control at 20 g/ha ([3]; Fallopia convolvulus, 504 h, dosage 20 g/ha, read-out: Post-emergence action against POLCO in %): 100%
pest or weed control at 20 g/ha (Avena fatua (AVEFA); Avena fatua, 504 h, read-out: Post-emergence action at 20 g/ha against AVEFA in %): 80%
pest or weed control at 1.25 g/ha ([4]; Abutilon theophrasti, 504 h, 1.25 g/ha, read-out: Post-emergence action at 1.25 g/ha against ABUTH in %): 100%
pest or weed control at 5 g/ha ([4]; Abutilon theophrasti, 504 h, 5 g/ha, read-out: Post-emergence action at 5 g/ha against ABUTH in %): 100%
pest or weed control at 20 g/ha ([4]; Abutilon theophrasti, 504 h, 20 g/ha, read-out: Post-emergence action at 20 g/ha against ABUTH in %): 100%
pest or weed control at 1.25 g/ha ([5]; Amaranthus retroflexus, 504 h, 1.25 g/ha, read-out: Post-emergence action at 1.25 g/ha against AMARE in %): 100%
pest or weed control at 5 g/ha ([5]; Amaranthus retroflexus, 504 h, 5 g/ha, read-out: Post-emergence action at 5 g/ha against AMARE in %): 100%
pest or weed control at 20 g/ha ([5]; Amaranthus retroflexus, 504 h, 20 g/ha, read-out: Post-emergence action at 20 g/ha against AMARE in %): 100%
pest or weed control at 5 g/ha ([6]; Alopecurus myosuroides, 504 h, 5 g/ha, read-out: Post-emergence action at 5 g/ha against ALOMY in %): 80%
pest or weed control at 20 g/ha ([6]; Alopecurus myosuroides, 504 h, 20 g/ha, read-out: Post-emergence action at 20 g/ha against ALOMY in %): 100%
pest or weed control at 20 g/ha (Setaria viridis (SETVI); Setaria viridis, 504 h, 20 g/ha, read-out: Post-emergence action against SETVI): 100%
pest or weed control at 1.25 g/ha (Setaria viridis (SETVI); Setaria viridis, 504 h, dosage 1.25 g/ha, read-out: Post-emergence action against SETVI in %): 100%
pest or weed control at 5 g/ha (Setaria viridis (SETVI); Setaria viridis, 504 h, dosage 5 g/ha, read-out: Post-emergence action against SETVI in %): 100%
pest or weed control at 5 g/ha ([7]; Echinochloa crus-galli, 504 h, dosage 5 g/ha, read-out: Post-emergence action against ECHCG in %): 100%
pest or weed control at 20 g/ha ([7]; Echinochloa crus-galli, 504 h, dosage 20 g/ha, read-out: Post-emergence action against ECHCG in %): 100%
pest or weed control at 5 g/ha ([8]; Tripleurospermum inodorum, 504 h, dosage 5 g/ha, read-out: Post-emergence action against MATIN in %): 100%
pest or weed control at 20 g/ha ([8]; Tripleurospermum inodorum, 504 h, dosage 20 g/ha, read-out: Post-emergence action against MATIN in %): 100%

Post-emergence action against ORYSA (crop plant compatibility) (Oryza sativa (ORYSA); 1.25 g/ha): 0%
Post-emergence action against ORYSA (crop plant compatibility) (Oryza sativa (ORYSA); 5 g/ha): 0%
Post-emergence action against ORYSA in % (Oryza sativa (ORYSA); 20 g/ha, crop plant compatibility): 0%
Post-emergence action against TRZAS (crop plant compatibility) ([1]; 1.25 g/ha): 0%
Post-emergence action against TRZAS (crop plant compatibility) ([1]; 5 g/ha): 20%
Compound: Cn1c(C(F)(F)F)cc(=O)n(-c2cc(Oc3ccccc3OCC(=O)OCC[N+](=O)[O-])c(Br)cc2F)c1=O [I.8-183]
Post-emergence action against VERPE (Veronica persica (VERPE); 5 g/ha): 100%
Post-emergence action against VERPE (Veronica persica (VERPE); 20 g/ha): 100%
Post-emergence action against VIOTR (Viola tricolor (VIOTR); 1.25 g/ha): 100%
Post-emergence action against VIOTR (Viola tricolor (VIOTR); 5 g/ha): 100%
Post-emergence action against VIOTR (Viola tricolor (VIOTR); 20 g/ha): 100%
Post-emergence action against PHBPU in % ([2]; dosage 5 g/ha): 100%
Post-emergence action against PHBPU in % ([2]; dosage 20 g/ha): 100%
Post-emergence action against POLCO in % ([3]; dosage 5 g/ha): 100%
Post-emergence action against POLCO in % ([3]; dosage 20 g/ha): 100%
Post-emergence action at 20 g/ha against AVEFA in % (Avena fatua (AVEFA)): 100%
Post-emergence action at 5 g/ha against ABUTH in % ([4]; 5 g/ha): 100%
Post-emergence action at 20 g/ha against ABUTH in % ([4]; 20 g/ha): 100%
Post-emergence action at 1.25 g/ha against AMARE in % ([5]; 1.25 g/ha): 100%
Post-emergence action at 5 g/ha against AMARE in % ([5]; 5 g/ha): 100%
Post-emergence action at 20 g/ha against AMARE in % ([5]; 20 g/ha): 100%
Post-emergence action at 5 g/ha against ALOMY in % ([6]; 5 g/ha): 80%
Post-emergence action at 20 g/ha against ALOMY in % ([6]; 20 g/ha): 100%
Post-emergence action against SETVI (Setaria viridis (SETVI); 20 g/ha): 100%
Post-emergence action against SETVI in % (Setaria viridis (SETVI); dosage 1.25 g/ha): 100%
Post-emergence action against SETVI in % (Setaria viridis (SETVI); dosage 5 g/ha): 100%
Post-emergence action against ECHCG in % ([7]; dosage 5 g/ha): 100%
Post-emergence action against ECHCG in % ([7]; dosage 20 g/ha): 100%
Post-emergence action against MATIN in % ([8]; dosage 5 g/ha): 80%
Post-emergence action against MATIN in % ([8]; dosage 20 g/ha): 100%

Post-emergence action against ORYSA (crop plant compatibility) (Oryza sativa (ORYSA); 1.25 g/ha): 0%
Post-emergence action against TRZAS (crop plant compatibility) ([1]; 1.25 g/ha): 20%
Compound: CCOCCOC(=O)COc1ccccc1Oc1cc(-n2c(=O)cc(C(F)(F)F)n(C)c2=O)c(F)cc1C#N [I.9-2]
Post-emergence action against VERPE (Veronica persica (VERPE); 1.25 g/ha): 100%
Post-emergence action against VERPE (Veronica persica (VERPE); 5 g/ha): 100%
Post-emergence action against VERPE (Veronica persica (VERPE); 20 g/ha): 100%
Post-emergence action against VIOTR (Viola tricolor (VIOTR); 1.25 g/ha): 100%
Post-emergence action against VIOTR (Viola tricolor (VIOTR); 5 g/ha): 100%
Post-emergence action against VIOTR (Viola tricolor (VIOTR); 20 g/ha): 100%
Post-emergence action against PHBPU in % ([2]; dosage 1.25 g/ha): 100%
Post-emergence action against PHBPU in % ([2]; dosage 5 g/ha): 100%
Post-emergence action against PHBPU in % ([2]; dosage 20 g/ha): 100%
Post-emergence action against POLCO in % ([3]; dosage 5 g/ha): 100%
Post-emergence action against POLCO in % ([3]; dosage 20 g/ha): 100%
Post-emergence action at 20 g/ha against AVEFA in % (Avena fatua (AVEFA)): 90%
Post-emergence action at 1.25 g/ha against ABUTH in % ([4]; 1.25 g/ha): 100%
Post-emergence action at 5 g/ha against ABUTH in % ([4]; 5 g/ha): 100%
Post-emergence action at 20 g/ha against ABUTH in % ([4]; 20 g/ha): 100%
Post-emergence action at 1.25 g/ha against AMARE in % ([5]; 1.25 g/ha): 100%
Post-emergence action at 5 g/ha against AMARE in % ([5]; 5 g/ha): 100%
Post-emergence action at 20 g/ha against AMARE in % ([5]; 20 g/ha): 100%
Post-emergence action at 5 g/ha against ALOMY in % ([6]; 5 g/ha): 80%
Post-emergence action at 20 g/ha against ALOMY in % ([6]; 20 g/ha): 100%
Post-emergence action against SETVI (Setaria viridis (SETVI); 20 g/ha): 100%
Post-emergence action against SETVI in % (Setaria viridis (SETVI); dosage 1.25 g/ha): 100%
Post-emergence action against SETVI in % (Setaria viridis (SETVI); dosage 5 g/ha): 100%
Post-emergence action at 1.25 g/ha against ECHCG in % ([7]; 1.25 g/ha, rated visually after about 3 weeks vs untreated controls, 100% = plants have died): 80%
Post-emergence action against ECHCG in % ([7]; dosage 5 g/ha): 100%
Post-emergence action against ECHCG in % ([7]; dosage 20 g/ha): 100%
Post-emergence action against MATIN in % ([8]; dosage 5 g/ha): 100%
Post-emergence action against MATIN in % ([8]; dosage 20 g/ha): 100%
